In patent publication US4814353A, “Therapeutic and prophylactic agent for gastritis” (Eisai Co., Ltd., priority 1985, dated 1989):

What was measured:
Solubility = format: physicochemical
[1] = Acute toxicity test, dog (beagle); details: in vivo, po, male, peroral
From the text: (§1) |Acute Toxicity LD50 (mg/μg)

[2] = Clinical instances, acute gastritis, peroral teprenone (symptoms, endoscopy, side effects); format: in vivo, human; details: 150 mg per day perorally; for subjective symptoms: acute gastritis, 3 days after administration; for endoscopy, lesion of tunica mucosa ventriculi: 5 days after administration
From the text: (§2) Specific clinical instances will be illustrated to substantiate the effect of the present invention. In the clinical instances, "teprenone" refers to a compound according to the present invention (teprenone is 6,10,14,18-tetramethyl-;b 5,9,13,17-nonadecatetraen-2-one with n=4 in the general formula (I)).
person: actute gastritis
The instance is concerned with a person who visited a hospital while mainly complaining of epigastralgia.
The subjective symptoms included not only severe epigastralgia but also medium nausea, emesis, anorexia, slight pyrosis, abdominal flatulence, abdominal oppression, gastric dysphoria, and eructation.
150 mg per day of teprenone, which is a compound according to the present invention, was perorally administered to the patient.
person: acute gastritis
The conditions of te patient before administration were as follows.
The subjective symptoms included severe epigastralgia, anorexia, medium pyrosis, nausea, emesis, abdominal flatulence, gastric dysphoria, slight abdominal oppression, and eructation.
In endoscopy before administration, lesion of tunica mucosa ventriculi was recognized in the vestibulum (paries anterior venticuli, curvatura ventriculi minor, paries posterior ventriculi) and angularis (paries anterior ventriculi, curvatura ventriculi minor, paries posterior ventriculi).
(§3) 150 mg per day of teprenone, which is the compound according to the present invention, was perorally administered to the patient.

[3] = Clinical instances, acute animus state/stage of chronic gastritis, peroral teprenone (symptoms, endoscopy, side effects); format: in vivo, human; details: 150 mg per day perorally
From the text: as §2
person: acute animus state of chronic gastritis
The conditions of the patient before administration were as follows.
The patient complained of subjective symptoms including severe pyrosis, eructation, and slight nausea and emesis. Lesion of mucosa ventriculi was endoscopically recognized in the curvature ventriculi major of the vestibulum.
as §3
(§4) person: acute animus stage of chronic gastritis
The conditions of the patient before administration were as follows. The patient complained of medium epigastralgia, slight abdominal oppression, gastric dysphoria, and anorexia. Lesion of tunica mucosa ventriculi was endoscopically recognized in the curvatura ventriculi minor of the angularis and the curvatura ventriculi minor of the corpus ventriculi.
as §4
The subjective symptoms included epigastralgia, pyrosis, abdominal oppression, gastric dysphoria, and eructation. The levels of them were all medium.
Endoscopically, lesion was recognized in the vestibulum (paries anterior ventriculi, curvatura ventriculi minor, paries posterior ventriculi).

[4] = Acute toxicity test, rat (SD); details: in vivo
From the text: as §1

[5] = Acute toxicity test, mouse (ICR); details: in vivo
From the text: as §1

[6] = Clinical Instance 5, after two weeks

## CC(=O)CCC=C(C)CCC=C(C)CCC=C(C)CCC=C(C)C (mixture of isomers) [3:2 mixture of (5E,9E,13E)-6,10,14,18-tetramethyl-5,9,13,17-nonadecatetraen-2-one and (5Z,9E,13E)-6,10,14,18-tetramethyl-5,9,13,17-nonadecatetraen-2-one]
Solubility; organic solvents
  solubility in organic solvents: soluble in organic solvents
Solubility; water
  solubility in water: hardly soluble in water

## CC(=O)CCC=C(C)CCC=C(C)CCC=C(C)CCC=C(C)C [teprenone, 6,10,14,18-tetramethyl-5,9,13,17-nonadecatetraen-2-one]
[1]
  LD50: > 1000 mg/kg
[2]; Clinical Instance 1, person
  subjective symptoms: all the symptons disappeared
[2]; Clinical Instance 1
  observation of clinical inspection: no abnormality was recognized
  side effects: no side effect altogether
  endoscopy, lesion of tunica mucosa ventriculi: disappearance of the lesion of the tunica mucosa ventriculi was recognized
[2]; Clinical Instance 3, person
  subjective symptoms: all the symptoms disappeared
[2]; Clinical Instance 3
  observation of clinical inspection: no lesion was recognized
  side effects: no side effects altogether
  endoscopy, lesion of tunica mucosa ventriculi: disappearance of the lesion of tunica mucosa ventriculi was recognized
[3]; Clinical Instance 2, person, chronic gastritis, 3 days after administration
  subjective symptoms: all the symptoms disappeared
[3]; Clinical Instance 2
  side effects, including observation of clinical inspection: No side effects were recognized altogether
[3]; Clinical Instance 2, 16 days after administration
  endoscopy, lesion of tunica mucosa ventriculi: disappearance of the lesion of tunica mucosa ventriculi was recognized
[3]; Clinical Instance 4, person, chronic gastritis, 3 days after administration
  subjective symptoms: substantially all the symptoms disappeared except that slight epigastralgia remained
[3]; Clinical Instance 4
  side effects, including observation of clinical inspection: No side effects were recognized altogether
[3]; Clinical Instance 4, 5 days after administration
  epigastralgia: the epigastralgia also disappeared
[3]; Clinical Instance 4, 14 days after administration
  endoscopy, lesion of tunica mucosa ventriculi: disappearance of the lesion of tunica mucosa ventriculi was recognized
[3]; Clinical Instance 5, person, chronic gastritis, 3 days after administration
  subjective symptoms: the abdominal oppression, the gastric dysphoria, and the eructation were mitigated, but the epigastralgia and the pyrosis remained unchanged
[3]; Clinical Instance 5
  side effects: No side effects were regonized
[3]; Clinical Instance 5, a week after administration
  subjective symptoms: all the symptoms disappeared except for slight eructation
[3]; [6]
  endoscopy, lesion of tunica mucosa ventriculi: the lesion of tunica mucosa ventriculi disappeared in all parts
  eructation: The eructation remained
[4]; im, female, intramuscular
  LD50: > 5000 mg/kg
[4]; im, male, intramuscular
  LD50: > 5000 mg/kg
[4]; ip, female, intraperitoneal
  LD50: 3500 to 5000 mg/kg
[4]; ip, male, intraperitoneal
  LD50: > 5000 mg/kg
[4]; po, female, peroral
  LD50: > 15000 mg/kg
[4]; po, male, peroral
  LD50: > 15000 mg/kg
[4]; sc, female, subcutaneous
  LD50: > 10000 mg/kg
[4]; sc, male, subcutaneous
  LD50: > 10000 mg/kg
[5]; im, female, intramuscular
  LD50: > 5000 mg/kg
[5]; im, male, intramuscular
  LD50: > 5000 mg/kg
[5]; ip, female, intraperitoneal
  LD50: 3850 mg/kg
[5]; ip, male, intraperitoneal
  LD50: 3750 mg/kg
[5]; po, female, peroral
  LD50: > 15000 mg/kg
[5]; po, male, peroral
  LD50: > 15000 mg/kg
[5]; sc, female, subcutaneous
  LD50: > 10000 mg/kg
[5]; sc, male, subcutaneous
  LD50: > 10000 mg/kg
